From ChEMBL document CHEMBL1862790, “Optimisation of fenarimol series for the treatment of Chagas disease”

What was measured:
Trypanosoma cruzi [1] = assay: microbe, parasite or virus in culture; type: functional, organism-based, Tulahuen LacZ, Clone C4; conditions: Trypanosoma cruzi, Tulahuen LacZ, Clone C4
[2] = DNDI: Cytotoxicity against L-6 rat myoblasts from skeletal muscle cells; conditions: L6 rat skeletal muscle myoblast cells, IC50
Trypanosoma cruzi [3] = assay: microbe, parasite or virus in culture; type: functional, Tulahuen LacZ, Clone C4; conditions: Trypanosoma cruzi, Tulahuen LacZ, Clone C4

SMILES | IC50 (Trypanosoma cruzi [1]) | IC90 (Trypanosoma cruzi [3]) | IC50 [2]
O=S(=O)(NC1CCN(C(c2cnccn2)c2ccc(F)cc2F)CC1)c1ccccc1 (stereo not given) | 470 nM | 880 nM | 67700 nM
CCS(=O)(=O)NC1CCN(C(c2cnccn2)c2ccc(F)cc2F)CC1 (stereo not given) | 1890 nM | 5420 nM | > 100000 nM
OC(c1ccc(Cl)cc1)(c1cccnc1)c1cnc(Cl)s1 (stereo not given) | 490 nM | > 1000 nM | > 100000 nM
CC(C)CC(=O)NC1CCN(C(c2cnccn2)c2ccc(F)cc2F)CC1 (stereo not given) | > 1000 nM | > 1000 nM | > 100000 nM
O=C(NC1CCN(C(c2cnccn2)c2ccc(F)cc2F)CC1)c1ccc(C(F)(F)F)cc1 (stereo not given) | 460 nM | 900 nM | 63600 nM
CC(=O)NC1CCN(C(c2cnccn2)c2ccc(F)cc2F)CC1 (stereo not given) | > 1000 nM | > 1000 nM | > 100000 nM
O=S(=O)(NC1CCN(C(c2cnccn2)c2ccc(F)cc2F)CC1)c1ccc(Cl)cc1 (stereo not given) | > 1000 nM | > 1000 nM | 34300 nM
CNC(=O)c1cccc(C(O)(c2ccc(Cl)cc2)c2cccnc2)c1 (stereo not given) | 590 nM | 995 nM | > 100000 nM
CCC(=O)NC1CCN(C(c2cnccn2)c2ccc(F)cc2F)CC1 (stereo not given) | > 1000 nM | > 1000 nM | > 100000 nM
CS(=O)(=O)N1CCN(C(c2ccc(Cl)cc2)c2cncnc2)CC1 (stereo not given) | 880 nM | 7540 nM | > 100000 nM
O=S(=O)(NC1CCN(C(c2ccc(C(F)(F)F)cc2)c2cnccn2)CC1)c1ccc(C(F)(F)F)cc1 (stereo not given) | 590 nM | > 1000 nM | 18100 nM
O=C(NC1CCN(C(c2cnccn2)c2ccc(F)cc2F)CC1)c1ccccc1 (stereo not given) | 550 nM | 930 nM | > 100000 nM
O=C(NC1CCN(C(c2cnccn2)c2ccc(F)cc2F)CC1)C1CC1 (stereo not given) | > 1000 nM | > 1000 nM | > 100000 nM
CC(C)CS(=O)(=O)NC1CCN(C(c2cnccn2)c2ccc(F)cc2F)CC1 (stereo not given) | 750 nM | 3540 nM | > 100000 nM
O=C(Cc1ccccc1)NC1CCN(C(c2cnccn2)c2ccc(F)cc2F)CC1 (stereo not given) | 700 nM | > 1000 nM | > 100000 nM
O=S(=O)(Cc1ccccc1)NC1CCN(C(c2cnccn2)c2ccc(F)cc2F)CC1 (stereo not given) | 720 nM | > 1000 nM | > 100000 nM
CCC(=O)N1CCN(C(c2ccc(Cl)cc2)c2cncnc2)CC1 (stereo not given) | 850 nM | 4830 nM | > 100000 nM

SMILES | IC50 (Trypanosoma cruzi [1]) | IC90 (Trypanosoma cruzi [3]) | IC50 [2]
CC(C)c1ccc(S(=O)(=O)NC2CCN(C(c3ccc(C(F)(F)F)cc3)c3cnccn3)CC2)cc1 (stereo not given) | 520 nM | > 1000 nM | 18400 nM
O=C(C1CC1)N1CCN(C(c2ccc(Cl)cc2)c2cncnc2)CC1 (stereo not given) | 500 nM | 920 nM | > 100000 nM
CC(C)c1ccc(S(=O)(=O)NC2CCN(C(c3cnccn3)c3ccc(F)cc3F)CC2)cc1 (stereo not given) | 850 nM | > 1000 nM | 25500 nM
CC(C)CC(=O)N1CCN(C(c2ccc(Cl)cc2)c2cncnc2)CC1 (stereo not given) | 430 nM | 910 nM | > 100000 nM
O=S(=O)(NC1CCN(C(c2ccc(C(F)(F)F)cc2)c2cnccn2)CC1)c1ccc(Cl)cc1 (stereo not given) | 700 nM | > 1000 nM | 18900 nM
O=S(=O)(NC1CCN(C(c2cnccn2)c2ccc(F)cc2F)CC1)c1ccc(C(F)(F)F)cc1 (stereo not given) | > 1000 nM | > 1000 nM | 29400 nM
CS(=O)(=O)NC1CCN(C(c2cnccn2)c2ccc(F)cc2F)CC1 (stereo not given) | 1380 nM | 4980 nM | > 100000 nM
O=C(C1CCCCC1)N1CCN(C(c2ccc(Cl)cc2)c2cncnc2)CC1 (stereo not given) | 320 nM | 920 nM | > 100000 nM
O=C(NCCN1CCOCC1)c1cccc(C(O)(c2ccc(Cl)cc2)c2cccnc2)c1 (stereo not given) | 500 nM | 950 nM | > 100000 nM
CCC(=O)NC1CCN(C(c2ccc(C(F)(F)F)cc2)c2cnccn2)CC1 (stereo not given) | 1040 nM | 7600 nM | > 100000 nM
O=S(=O)(Cc1ccccc1)NC1CCN(C(c2ccc(C(F)(F)F)cc2)c2cnccn2)CC1 (stereo not given) | 310 nM | 780 nM | 54900 nM
O=S(=O)(c1ccc(C(F)(F)F)cc1)N1CCN(C(c2ccc(Cl)cc2)c2cncnc2)CC1 (stereo not given) | 290 nM | > 1000 nM | 57000 nM
Clc1ccc(C(c2cncnc2)N2CCNCC2)cc1 (stereo not given) | > 1000 nM | > 1000 nM | > 100000 nM
O=C(NC1CCN(C(c2cnccn2)c2ccc(F)cc2F)CC1)C1CCCCC1 (stereo not given) | 800 nM | > 1000 nM | > 100000 nM
O=C(c1ccccc1)N1CCN(C(c2ccc(Cl)cc2)c2cncnc2)CC1 (stereo not given) | 500 nM | 950 nM | 75500 nM
CCS(=O)(=O)NC1CCN(C(c2ccc(C(F)(F)F)cc2)c2cnccn2)CC1 (stereo not given) | 1140 nM | 6470 nM | > 100000 nM
CN(C)C(=O)NC1CCN(C(c2cnccn2)c2ccc(F)cc2F)CC1 (stereo not given) | > 1000 nM | > 1000 nM | > 100000 nM

Compounds with a lower IC50 (Trypanosoma cruzi [1]), results first:

IC50 (Trypanosoma cruzi [1]) | IC90 (Trypanosoma cruzi [3]) | SMILES | IC50 [2]
270 nM | 760 nM | O=C(NC1CCN(C(c2cnccn2)c2ccc(F)cc2F)CC1)c1ccc(Cl)cc1 (stereo not given) | 66900 nM
260 nM | 650 nM | CC(C)(C)OC(=O)NC1CCN(C(c2cnccn2)c2ccc(F)cc2F)CC1 (stereo not given) | > 100000 nM
250 nM | > 1000 nM | CN(C)C(=O)NC1CCN(C(c2ccc(C(F)(F)F)cc2)c2cnccn2)CC1 (stereo not given) | > 100000 nM
230 nM | 870 nM | O=C1OC(c2ccc(Cl)cc2)(c2cccnc2)c2ccccc21 (stereo not given) | 84800 nM
220 nM | 620 nM | O=S(=O)(Cc1ccccc1)N1CCN(C(c2ccc(Cl)cc2)c2cncnc2)CC1 (stereo not given) | 63000 nM
210 nM | 710 nM | CC(C)(C)OC(=O)N1CCC(NC(c2cnccn2)c2ccc(F)cc2F)CC1 (stereo not given) | > 100000 nM
150 nM | 320 nM | O=C(NC1CCCC1)c1cccc(C(O)(c2ccc(Cl)cc2)c2cccnc2)c1 (stereo not given) | 60800 nM
150 nM | 320 nM | O=C(c1ccc(C(F)(F)F)cc1)N1CCN(C(c2ccc(Cl)cc2)c2cncnc2)CC1 (stereo not given) | 54100 nM
130 nM | 460 nM | O=S(=O)(c1ccc(Cl)cc1)N1CCN(C(c2ccc(Cl)cc2)c2cncnc2)CC1 (stereo not given) | 29000 nM
98 nM | 300 nM | CC(C)CNC(=O)c1cccc(C(O)(c2ccc(Cl)cc2)c2cccnc2)c1 (stereo not given) | 60500 nM
65 nM | 850 nM | O=S(=O)(C1CCCCC1)N1CCN(C(c2ccc(Cl)cc2)c2cncnc2)CC1 (stereo not given) | 56300 nM
60 nM | 210 nM | O=C(NC1CCCCC1)c1cccc(C(O)(c2ccc(Cl)cc2)c2cccnc2)c1 (stereo not given) | 52300 nM
38 nM | 130 nM | CON(C)C(=O)c1cccc(C(O)(c2ccc(Cl)cc2)c2cccnc2)c1 (stereo not given) | > 100000 nM
34 nM | 120 nM | O=C(c1cccc(C(O)(c2ccc(Cl)cc2)c2cccnc2)c1)N1CCOCC1 (stereo not given) | > 100000 nM
24 nM | 78 nM | CC(C)c1ccc(S(=O)(=O)N2CCN(C(c3ccc(Cl)cc3)c3cncnc3)CC2)cc1 (stereo not given) | 46100 nM
14 nM | 56 nM | CC(C)N(C(=O)c1cccc(C(O)(c2ccc(Cl)cc2)c2cccnc2)c1)C(C)C (stereo not given) | 54700 nM
